# What was measured:
# caspase-8 = test: Caspase-8 in A549 xenograft tumor lysates; type: in vivo, mouse; conditions: pooled tumor lysates
# Protocol: FIG. 8. (A) A549 cells (2,000 cells/well in 24-well plates) were treated for 24 h or 48 h with CL4 42-81 or CL4 scrambled (200 nM-final concentration) and proliferation was determined by [^3H]-thymidine incorporation. Vertical bars indicate the standard deviation values. […] Day 0 marks the first day of injection. Data are shown as means±s.e.m. (n=8 tumors). (C) Three tumors per group selected randomly were excised, lysed, and the pooled lysates were immunoblotted with anti-pEGFR, anti-EGFR, anti-caspase-3, anti-cleaved caspase-8 and anti-αtubulin antibodies, as indicated. Molecular weights of indicated proteins are reported. (D) Cell lysates as in (C) were analyzed by caspase-3 fluorimetric assays.
# Athymic CD-1 nude mice (nu/nu) were housed in a highly controlled microbiological environment, thus to guarantee specific pathogen free conditions. Mice were injected subcutaneously with 3×10^6 (in 100 μl) in vitro propagated A549. Sixteen non-necrotic tumors of about 0.5 cm in diameter were randomly divided into two groups of eight mice as follows: group 1, CL4 scrambled-treated; group 2, CL4 42-81-treated. Aptamers (200 pmols/injection) were injected intra-tumorally in 100-1 μl volumes three times a week for 16 days. Tumors were measured every 2 days.
# [1] = Half life of the aptamer in serum; type: in vitro ADME; conditions: in 10% serum
# [2] = molecular target: T1, soluble extracellular domain of human ErbB3 (EC-ErbB3) (Homo sapiens, UniProt P21860); test: Filter binding on soluble extracellular domain of ErbB3
# T1 construct: purchased R&D Systems
# Protocol: (§1) Binding experiments were performed with 5′-[^32P]-labeled RNA. For labeling 2′-F-Py RNAs were 5′-end dephosphorylated using bacterial alcaline phosphatase (Invitrogen, Carlsbad, Calif.) before [^32P]-5′-end-labeled using T4 kinase (Invitrogen) and γ-[^32P]-ATP (6×10^3 Ci/mmol, GE Healthcare Bio-Sciences, Uppsala, Sweden) according to the supplier's instructions.
# (§2) The aptamers ability to bind EGFR or ErbB3 soluble extracellular domain (EC-EGFR and EC-ErbB3) was investigated by filter binding by plotting the fraction of RNA bound to the nitrocellulose filter as a function of protein concentration, using the following equation:
# (§3) [formula] where Bmax is the extrapolated maximal amount of RNA:protein complex that will be bound. 1 nM of radiolabelled aptamers (CL4 42-81 aptamer or the scrambled sequence) were incubated with 1, 3.2, 10, 32, 100, 320 and 1000 nM of EC-EGFR and EC-ErbB3 (all from R&D Systems, Minneapolis, Minn.) for 15 min at 37° in phosphate-buffered saline (PBS) supplemented with 0.01% bovine serum albumin.
# (§4) In order to test the binding for dimeric and monomeric proteins, 1 nM of radiolabelled aptamers (CL4 42-81 or scrambled) were incubated with 20 nM of EC-EGFR and EC-ErbB3 without or with 5 mM DTT.
# (§5) After incubation, the aptamer-protein mix was passed through nitrocellulose membrane filter (Millipore Co., Bedford, Mass.) and filters were counted. […]
# A549 cells [3] = test: Binding of [32P]-labeled aptamer on A549 cells; parameters: species or system human
# Protocol: as §1
# (§6) For binding experiments on cells, 3.5×10^4 cells were plated in 24-well plates in triplicate and were incubated with CL4 42-81 aptamer the scrambled sequence used as a negative control at 100 nM concentration in 200 μl of DMEM serum free for 20 min at RT in the presence of 100 μg/ml polyinosine as a nonspecific competitor (Sigma, St. Louis, Mo.). After five washings with 500 μl DMEM, bound sequences were recovered in 300 μl of SDS 1%, and the amount of radioactivity recovered was counted.
# A549 cells [4] = test: [3H]-thymidine incorporation assay; type: cell-based, human; conditions: A549, 200 nM final concentration, 24 and 48 h
# Protocol: A549 cells were treated for 24 h or 48 h with CL4 42-81 or CL4 scrambled. During the final 6 h, cells were pulsed with 1 μCi/ml [^3H]-thymidine (45 Ci/mmol) (Amersham-Pharmacia Biosciences) added in complete growth medium and incubated at 37° C. At the end of each pulse, cells were harvested and [^3H]-thymidine incorporation was analyzed by a Beckman LS 1701 Liquid Scintillation Counter.
# breast T47D = test: Binding on T47D cells; parameters: species or system human; conditions: no or very low expression of EGFR; 100 nM
# Protocol: as §1, §6
# [5] = molecular target: T2, soluble extracellular domain of human EGFR (EC-EGFR) (Homo sapiens, UniProt P00533); test: Filter binding on soluble extracellular domain of EGFR
# T2 construct: purchased R&D Systems
# Protocol: as §1, §2, §3, §4, §5
# [6] = system: NIH3T3 cells stably transfected with human EGFR (NIH/EGFR); test: Binding on NIH/EGFR cells; parameters: species or system mouse; conditions: [32P]-labeled aptamer at 100 nM; relative to scrambled aptamer
# Protocol: Human NSCLC A549, epidermoid carcinoma A431, glioma U87MG and T98G, breast SKBr3, MCF7 and T47D and mouse fibroblast NIH3T3 (all from American Type Culture Collection, Manassas, Va.) cells were grown in Dulbecco's modified Eagle medium (DMEM) supplemented with 10% fetal bovine serum (FBS) and 2 mM L-glutamine (Invitrogen, Carlsbad, Calif.). NIH3T3 cells stably transfected with human EGFR (NIH/EGFR) were grown in DMEM with 10% FBS and 2 mM L-glutamine supplemented with 50 μg/ml Gentamycin.
# as §1, §6
# T1 sequence (P21860 20-643 limits assumed): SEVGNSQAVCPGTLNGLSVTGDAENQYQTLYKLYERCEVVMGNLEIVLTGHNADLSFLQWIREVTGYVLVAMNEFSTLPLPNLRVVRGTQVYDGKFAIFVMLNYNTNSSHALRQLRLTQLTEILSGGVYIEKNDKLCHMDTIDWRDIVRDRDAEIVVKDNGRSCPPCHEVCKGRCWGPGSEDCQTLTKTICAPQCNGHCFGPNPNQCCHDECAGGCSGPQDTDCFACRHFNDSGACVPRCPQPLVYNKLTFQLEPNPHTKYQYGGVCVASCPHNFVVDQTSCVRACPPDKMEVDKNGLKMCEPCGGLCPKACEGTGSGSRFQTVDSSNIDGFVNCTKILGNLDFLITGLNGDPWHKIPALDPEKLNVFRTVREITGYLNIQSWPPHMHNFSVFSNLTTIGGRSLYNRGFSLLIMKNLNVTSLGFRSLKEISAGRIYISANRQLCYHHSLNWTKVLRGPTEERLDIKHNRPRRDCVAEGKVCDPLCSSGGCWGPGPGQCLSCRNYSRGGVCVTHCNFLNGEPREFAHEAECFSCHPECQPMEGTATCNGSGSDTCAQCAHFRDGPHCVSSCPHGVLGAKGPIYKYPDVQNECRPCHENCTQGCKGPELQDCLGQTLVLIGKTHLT
substance,measurement,setting,value
"CL4 42-81: 2′-fluoropyrimidine nuclease-resistant RNA aptamer of 39 nt: 5′ GCCUUAGUAACGUGCUUUGAUGUCGAUUCGACAGGAGGC 3′ (SEQ ID No. 1) (2'-fluoro at CU, RNA at AG, backbone not given here)",caspase-8 activation in xenograft tumors,caspase-8,activates
same,half life of the aptamer,[1],6 h
same,"affinity for EC-ErbB3, magnitude lower",[2]; does not bind or binds with lower affinity,at least 10^3
same,Kd,"[2]; filter binding, EC-ErbB3, protein up to 1000 nM",no Kd value could be calculated
same,binding on A549 cells,"A549 cells [3]; EGFR-positive, 100 nM",binds
same,Kd,A549 cells [3]; binding to A549 target cells,38 nM
same,[3H]-thymidine incorporation,A549 cells [4],completely blocks
same,binding on T47D cells,breast T47D,does not bind
same,Kd,[5],10 nM
same,binding on NIH/EGFR cells,[6],binds

# Reference: patent publication US9125930B2, “EGFR aptamer inhibitor for use in therapy and diagnosis” (CONSIGLIO NAZIONALE DELLE RICERCHE, priority 2010, dated 2015)
